Reference: patent publication US20090318500A1, “4-(2, 6-Dichloro-benzoylamino)-1H-pyrazole-3-carboxylic acid (1-methanesulphonyl-piperidin-4-yl)-amide for the Treatment of Cancer” (Astex Therapeutics limited, priority 2006, published 2009)
Where two headings read alike, the source gives them in different places.

Columns and labels:
[1] = tested on: malignant cells from B-cell chronic lymphocytic leukemia (B-CLL); settings: in vitro; cited from earlier work
CDK1/CyclinB = biological target: T1, CDK1/CyclinB (Homo sapiens, UniProt P06493); assay: Activated CDK1/CyclinB kinase inhibitory activity assay; format: biochemical
T1 construct: purchased Upstate Discovery
T1 sequence (P06493 whole entry): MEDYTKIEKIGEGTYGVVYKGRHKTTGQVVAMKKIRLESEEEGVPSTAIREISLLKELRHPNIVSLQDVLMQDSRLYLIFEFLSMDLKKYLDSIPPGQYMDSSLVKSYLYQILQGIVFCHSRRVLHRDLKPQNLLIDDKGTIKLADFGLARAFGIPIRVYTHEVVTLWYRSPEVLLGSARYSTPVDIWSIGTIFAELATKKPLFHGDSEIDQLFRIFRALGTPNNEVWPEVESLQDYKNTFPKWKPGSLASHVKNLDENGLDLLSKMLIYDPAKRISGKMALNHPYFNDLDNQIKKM
T1 sequence (P14635 whole entry partner): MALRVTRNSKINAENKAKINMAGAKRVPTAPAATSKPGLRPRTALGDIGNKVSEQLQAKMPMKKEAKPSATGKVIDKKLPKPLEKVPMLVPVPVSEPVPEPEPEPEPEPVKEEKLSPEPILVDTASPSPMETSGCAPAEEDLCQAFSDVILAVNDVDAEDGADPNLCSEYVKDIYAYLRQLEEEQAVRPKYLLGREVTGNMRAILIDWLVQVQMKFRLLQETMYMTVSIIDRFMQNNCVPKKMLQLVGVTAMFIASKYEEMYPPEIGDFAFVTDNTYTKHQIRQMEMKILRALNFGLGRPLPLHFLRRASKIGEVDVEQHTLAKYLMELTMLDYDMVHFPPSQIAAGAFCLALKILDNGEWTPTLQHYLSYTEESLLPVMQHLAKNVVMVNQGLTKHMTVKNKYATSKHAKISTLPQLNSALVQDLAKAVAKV
Method: CDK1/CyclinB assay is identical to the CDK2/CyclinA above except that CDK1/CyclinB (Upstate Discovery) is used and the enzyme is diluted to 6.25 nM.

HCT-116 cell line = assay: Anti-proliferative activity, Alamar Blue assay; format: cell-based, human; settings: for IC50: read-out: HCT-116 cell proliferation IC50, 72 hours with compound
Method: (§1) Inhibition of cell growth is measured using the Alamar Blue assay (Nociari, M. M, Shalev, A., Benias, P., Russo, C. Journal of Immunological Methods 1998, 213, 157-167). The method is based on the ability of viable cells to reduce resazurin to its fluorescent product resorufin. For each proliferation assay cells are plated onto 96 well plates and allowed to recover for 16 hours prior to the addition of inhibitor compounds for a further 72 hours. At the end of the incubation period 10% (v/v) Alamar Blue is added and incubated for a further 6 hours prior to determination of fluorescent product at 535nM ex/590nM em. In the case of the non-proliferating cell assay cells are maintained at confluence for 96 hour prior to the addition of inhibitor compounds for a further 72 hours. The number of viable cells is determined by Alamar Blue assay as before. Cell lines can be obtained from the ECACC (European Collection of cell Cultures).
as §1, with “535 nM ex/590 nM” for “535nM ex/590nM”, “EC ACC” for “ECACC”

[2] = Determination of oral bioavailability; format: in vivo; settings: balb/c, mouse, plasma, 5 mg/kg, mice
Method: The oral bioavailability of the compound of formula (I) may be determined as follows.
The test compound is administered as a solution both I.V. and orally to balb/c mice at the following dose level and dose formulations; • 1 mg/kg IV formulated in 10%DMSO/90% (2-hydroxypropyl)-β-cyclodextrin (25% w/v); and • 5 mg/kg PO formulated in 10% DMSO/20% water/70% PEG200.
At various time points after dosing, blood samples are taken in heparinised tubes and the plasma fraction is collected for analysis. The analysis is undertaken by LC-MS/MS after protein precipitation and the samples are quantified by comparison with a standard calibration line constructed for the test compound. The area under the curve (AUC) is calculated from the plasma level vs time profile by standard methods. The oral bioavailability as a percentage is calculated from the following equation: […]

[3] = tested on: human tumour derived cell lines; assay: Xenograft studies; format: in vivo, nude mice; settings: sub-cutaneous xenografts, dosed orally
Text: These biomarkers include suppression of phosphorylation of substrates of the cyclin dependent kinases e.g. retinoblastoma protein. The compound is effective when given in a range of different schedules including chronic dosing for several weeks.

[4] = Vapour sorption/desorption analysis; format: physicochemical; settings: 25 °C
Method: Approximately 20 mg of sample was placed into a wire-mesh vapour sorption balance pan and loaded into an ‘IgaSorp’ vapour sorption balance (Hiden Analytical Instruments) held at 25±0.1° C. The sample was then dried by maintaining a 0% humidity environment (using mass flow control apparatus) until no further weight change was recorded. Subsequently, the sample was then subjected to a ramping profile from 0-90% relative humidity (% RH) at 10% RH increments, maintaining the sample at each step until equilibration had been attained (99.5% step completion).
Upon reaching equilibration, the % RH within the apparatus was ramped to the next step and the equilibration procedure repeated. After completion of the sorption cycle, the sample was then dried using the same procedure. The weight change during the sorption/desorption cycles was then monitored, allowing for the hygroscopic nature of the sample to be determined.

[5] = tested on: transcription in HCT-116 cells

| IC50 (CDK1/CyclinB) [nM] | IC50 (HCT-116 cell line) [nM] | IC50 (HCT-116 cell line; listed as Compound of the Invention) [nM] | bioavailability [2] [%] | Weight loss during initial drying ([4]; 0% RH) | Total weight increase ([4]; upon equilibration at 90% RH) [%] | IC50 for transcription higher than IC50 for proliferation [5] [fold] | SMILES | Apoptosis of B-CLL cells [1] | More potent anti-proliferative effect on HCT-116 compared to difluoro-analogue (HCT-116 cell line) | Effect on tumour growth in xenografts [3] |
| --- | --- | --- | --- | --- | --- | --- | --- | --- | --- | --- |
|  |  |  |  |  |  |  | CC[C@H](CO)Nc1nc(NCc2ccccc2)c2ncn(C(C)C)c2n1 [CYC 202] | induce in vitro apoptosis |  |  |
|  |  |  |  |  |  |  | CN1CC[C@H](c2c(O)cc(O)c3c(=O)cc(-c4ccccc4Cl)oc23)[C@H](O)C1 [Flavopiridol] | induce in vitro apoptosis |  |  |
| < 1000 | < 1000 | 110 | 40 to 50 | approximately 0.01% | 0.24 | ~100 | CS(=O)(=O)N1CCC(NC(=O)c2n[nH]cc2NC(=O)c2c(Cl)cccc2Cl)CC1 [compound of the invention, 4-(2,6-dichloro-benzoylamino)-1H-pyrazole-3-carboxylic acid (1-methanesulphonyl-piperidin-4-yl)-amide] |  | 6-7 fold | inhibition of tumour growth |
